Reference: PubChem BioAssay (NCI)
Where “and” joins values, the source holds several entries; their conditions need not be identical. Equal entries are not always repeated.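 Here, GI50 denotes the concentration required for 50% inhibition of growth. TGI: total growth inhibition.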

Key:
Test in all cases: growth of human tumour cells (NCI), 384-well format
[1] = tested on: HT29 colon
[2] = tested on: MOLT-4 leukemia
[3] = tested on: NCI-H522 lung
[4] = tested on: HCT-116 colon
[5] = tested on: MDA-MB-468 breast
[6] = tested on: OVCAR-4 ovarian
[7] = tested on: BT-549 breast
[8] = tested on: SNB-19 CNS
[9] = tested on: SR leukemia
[10] = tested on: EKVX NSCLC
[11] = tested on: NCI-H322M lung
[12] = tested on: ACHN renal
[13] = tested on: IGROV1 ovarian
[14] = tested on: SK-OV-3 ovarian
[15] = tested on: CAKI-1 renal
[16] = tested on: NCI/ADR-RES ovarian
[17] = tested on: KM12 colon
[18] = tested on: SK-MEL-5 melanoma
[19] = tested on: MCF7 breast
[20] = tested on: COLO 205 colon
[21] = tested on: 786-0 renal
[22] = tested on: OVCAR-5 ovarian
[23] = tested on: MALME-3M melanoma
[24] = tested on: UACC-257 melanoma
[25] = tested on: NCI-H226 lung
[26] = tested on: OVCAR-3 ovarian
[27] = tested on: HL-60(TB) leukemia
[28] = tested on: UO-31 renal
[29] = tested on: HCT-15 colon
[30] = tested on: PC-3 prostate
[31] = tested on: DU-145 prostate
[32] = tested on: SF-268 CNS
[33] = tested on: MDA-MB-435 melanoma
[34] = tested on: HOP-92 NSCLC
[35] = tested on: UACC-62 melanoma
[36] = tested on: M14 melanoma
[37] = tested on: MDA-MB-231 breast
[38] = tested on: K-562 leukemia
[39] = tested on: RXF 393 renal
[40] = tested on: A549 NSCLC
[41] = tested on: NCI-H23 lung
[42] = tested on: RPMI-8226 leukemia
[43] = tested on: SNB-75 CNS
[44] = tested on: LOX IMVI melanoma
[45] = tested on: HS 578T breast
[46] = tested on: A498 renal
[47] = tested on: SK-MEL-28 melanoma
[48] = tested on: U251 glioblastoma
[49] = tested on: SW-620 colon
[50] = tested on: NCI-H460 NSCLC
[51] = tested on: OVCAR-8 ovarian
[52] = tested on: TK-10 renal
[53] = tested on: CCRF-CEM leukemia
[54] = tested on: SF-295 CNS
[55] = tested on: HCC-2998 colon
[56] = tested on: T-47D breast
[57] = tested on: HOP-62 NSCLC
[58] = tested on: SF-539 CNS
[59] = tested on: SN12C renal

Cn1cc(-c2nc(N[C@@H]3CCCC[C@@H]3N)c(F)c3c2C(=O)NC3)cn1
GI50 [1]: 4.79 µM and 7.58 µM | TGI [1]: 58.5 µM and 26.6 µM | GI50 [2]: 299 nM and 1140 nM | GI50 [3]: 1640 nM and 3560 nM | TGI [3]: 6.01 µM and 15.4 µM | GI50 [4]: 2040 nM and 2980 nM | TGI [4]: 17.3 µM and 17.9 µM | GI50 [5]: 3.08 µM and 4.3 µM | TGI [5]: 6.44 µM and 11.7 µM | GI50 [6]: 15.2 µM and 21.4 µM | TGI [6]: 30.5 µM and 43.7 µM | GI50 [7]: 2.17 µM and 5.01 µM | TGI [7]: 5.18 µM and 15.9 µM | GI50 [8]: 17.8 µM and 19.4 µM | TGI [8]: 33.7 µM and 39.1 µM | GI50 [9]: 535 nM and 170 nM | TGI [9]: 1780 nM and 447 nM | GI50 [10]: 5.37 µM and 12.8 µM | TGI [10]: 29.5 µM and 62.4 µM | GI50 [11]: 15.5 µM and 28.7 µM | TGI [11]: 38.9 µM and > 100 µM | GI50 [12]: 2 µM and 6.59 µM | TGI [12]: 59.2 µM and > 100 µM | GI50 [13]: 2.99 µM and 10.9 µM | TGI [13]: 28.9 µM and 90.9 µM | GI50 [14]: 2.07 µM and 10.8 µM | TGI [14]: 21.5 µM and 65.8 µM | GI50 [15]: 3.22 µM and 4.17 µM | TGI [15]: 19.7 µM and 19.3 µM | GI50 [16]: 38.8 µM and > 100 µM | TGI [16]: > 100 µM | GI50 [17]: 339 nM and 445 nM | TGI [17]: 25.2 µM and 45.1 µM | TGI [18]: 17.8 µM and 34.5 µM | GI50 [19]: 2.89 µM and 19.2 µM | TGI [19]: 36.5 µM and 81.2 µM | GI50 [20]: 1450 nM and 1850 nM | TGI [20]: 2.9 µM and 3.53 µM | GI50 [21]: 5.53 µM and 4.81 µM | TGI [21]: 17.9 µM and 18.3 µM | GI50 [22]: 6.09 µM | TGI [22]: 21.6 µM | GI50 [23]: 6.89 µM and 4.15 µM | TGI [23]: 22.2 µM and 26 µM | GI50 [24]: 12.8 µM and 33.7 µM | TGI [24]: 33.4 µM and > 100 µM | GI50 [25]: 2.08 µM and 4.38 µM | TGI [25]: 7.05 µM and 27.9 µM | GI50 [26]: 9.28 µM and 9.39 µM | TGI [26]: 24.7 µM and 34.3 µM | GI50 [27]: 3180 nM and 2760 nM | TGI [27]: 14.7 µM and 13.3 µM | GI50 [28]: 7.89 µM and 11 µM | TGI [28]: 20.5 µM and 23.2 µM | GI50 [29]: 5.33 µM and 10.6 µM | TGI [29]: 28.3 µM and > 100 µM | GI50 [30]: 9.39 µM and 15.4 µM | TGI [30]: 45.3 µM and 86.9 µM | GI50 [31]: 4.08 µM and 9.76 µM | TGI [31]: 30.8 µM and 38.1 µM | GI50 [32]: 2.79 µM and 9.19 µM | TGI [32]: 15.2 µM and 45.5 µM | GI50 [33]: 4.49 µM and 6.35 µM | TGI [33]: > 100 µM | GI50 [34]: 3.89 µM and 5.41 µM | TGI [34]: 15.6 µM and 18.3 µM | GI50 [35]: 13.3 µM | TGI [35]: 39.5 µM | GI50 [36]: 615 nM and 1560 nM | TGI [36]: 25.7 µM and 14.5 µM | GI50 [37]: 5 µM and 10.4 µM | TGI [37]: 17.7 µM and 22.9 µM | GI50 [38]: 2.93 µM and 3.44 µM | TGI [38]: 14 µM and 18.6 µM | GI50 [39]: 596 nM and 2120 nM | TGI [39]: 3.57 µM and 13 µM | GI50 [40]: 4.08 µM and 6.73 µM | TGI [40]: 33.2 µM and 32.9 µM | GI50 [41]: 2.17 µM and 4.29 µM | TGI [41]: 13 µM and 17.5 µM | GI50 [42]: 537 nM and 1520 nM | TGI [42]: 2.19 µM and 4.13 µM | GI50 [43]: 1.88 µM and 5.16 µM | TGI [43]: 4.98 µM and 19.4 µM | GI50 [44]: 1850 nM and 3580 nM | TGI [44]: 3.98 µM and 12.7 µM | GI50 [45]: 2.21 µM and 11 µM | TGI [45]: 12.1 µM and 25.5 µM | GI50 [46]: 559 nM and 1300 nM | TGI [46]: 10.4 µM and 8.94 µM | GI50 [47]: 10.2 µM and 11.2 µM | TGI [47]: 66.1 µM and > 100 µM | GI50 [48]: 14.2 µM and 17.6 µM | TGI [48]: 27.9 µM and 32.8 µM | GI50 [49]: 2.37 µM and 5.69 µM | TGI [49]: 7.78 µM and 25.8 µM | GI50 [50]: 2610 nM and 3150 nM | TGI [50]: 13.5 µM and 14.3 µM | GI50 [51]: 6.08 µM and 12.2 µM | TGI [51]: 19.4 µM and 25.2 µM | GI50 [52]: 3.87 µM and 12.1 µM | TGI [52]: 17.5 µM and 26.9 µM | GI50 [53]: 1480 nM and 1750 nM | TGI [53]: 2.97 µM and 3.26 µM | GI50 [54]: 675 nM and 3120 nM | TGI [54]: 2.81 µM and 11.7 µM | TGI [55]: 20.6 µM and 38.7 µM | GI50 [56]: 32.5 µM and 56.3 µM | TGI [56]: 85.3 µM and > 100 µM | GI50 [57]: 2.31 µM and 4.56 µM | TGI [57]: 9.99 µM and 16.5 µM | GI50 [58]: 1350 nM and 3090 nM | TGI [58]: 3.56 µM and 13 µM | GI50 [59]: 2090 nM and 1950 nM | TGI [59]: 10.9 µM and 7.66 µM
